Values quoted from earlier work, collected in patent US20030143247A1, “Antiviral compositions and methods for identification and use” (priority 2002, published 2003).

Assays:
[1] = human, in vivo
HCV = conditions: various clinical trials
[2] = system: HIV viral RNA region within the Rev-binding site; conditions: Zapp et al., Cell 74, 1993

Molecule: NC(=O)c1ncn([C@@H]2O[C@H](CO)[C@@H](O)[C@H]2O)n1 [ribavirin, 1-β-D-ribo-furanosyl-1,2,4-trizole-3-carboxamide]
- side effect [1]: can cause hemolytic anemia

Molecule: IFN-α
- patients who initially responded to the therapy (HCV; patients treated with IFN-α): approximately 40%
- initial responders who relapsed after the treatment ended (HCV; share of the initial responders): 70%

Molecule: NC[C@@H]1O[C@H](O[C@H]2[C@@H](O)[C@H](O[C@@H]3[C@@H](O)[C@H](N)C[C@H](N)[C@H]3O[C@H]3O[C@H](CN)[C@@H](O)[C@H](O)[C@H]3N)O[C@@H]2CO)[C@H](N)[C@@H](O)[C@@H]1O [neomycin B]
- effect on Rev protein binding to HIV viral RNA [2]: blocks Rev protein binding
